The EC50 is the concentration at which the effect is half-maximal.

37 compounds from US8629157B2, “Pyrrolidine compounds which modulate the CB2 receptor” (Boehringer Ingelheim International GmbH, priority 2009, dated 2014) can be followed below.

human CB2R, sequence (P34972 whole entry): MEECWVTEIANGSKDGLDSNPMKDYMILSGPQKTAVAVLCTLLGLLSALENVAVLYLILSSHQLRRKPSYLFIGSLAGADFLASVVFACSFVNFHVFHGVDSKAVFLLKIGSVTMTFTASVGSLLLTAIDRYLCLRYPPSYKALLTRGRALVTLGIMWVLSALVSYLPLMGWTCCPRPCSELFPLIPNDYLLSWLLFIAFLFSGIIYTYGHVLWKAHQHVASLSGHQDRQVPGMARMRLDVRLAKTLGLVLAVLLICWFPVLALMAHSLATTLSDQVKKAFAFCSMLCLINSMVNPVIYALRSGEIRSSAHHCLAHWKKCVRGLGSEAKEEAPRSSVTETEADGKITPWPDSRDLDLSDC

One assay has as its target human CB2R (Homo sapiens, UniProt P34972). Kind of assay: CB2R mediated modulation of cAMP synthesis. In kind it is cell-based.
Conditions: not given
In a few lines: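 cAMP measured with the DiscoverX-XS kit after 30 min, 37° C. compound exposure of human CB2R-expressing CHO cells stimulated by 10 uM forskolin (1 mM IBMX, 0.25% BSA).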
Consider `CC(C)N1CCC[C@H]1C(=O)Nc1cc(C(C)(C)C)no1` [(S)-1-Isopropyl-pyrrolidine-2-carboxylic acid (3-tert-butyl-isoxazol-5-yl)-amide], for which the EC50 was 163 nM. For the compound `CC(C)(CO)c1cc(NC(=O)[C@@H]2CCC(=O)N2c2ccc(Cl)cc2)on1` [(S)-1-(4-Chloro-phenyl)-5-oxo-pyrrolidine-2-carboxylic acid [3-(2-hydroxy-1,1-dimethyl-ethyl)-isoxazol-5-yl]-amide], the EC50 was found to be 152 nM.

`CC(C)(C)c1cc(NC(=O)[C@@H]2CCCN2c2ncc(C(F)(F)F)cc2Cl)on1` [(S)-1-(3-Chloro-5-trifluoromethyl-pyridin-2-yl)-pyrrolidine-2-carboxylic acid (3-tert-butyl-isoxazol-5-yl)-amide] had an EC50 of 0.055 nM. Still for that read-out and setting: in the case of `CC(C)(CO)c1cc(NC(=O)[C@@H]2CCC(=O)N2c2ccc(C(F)(F)F)cc2)no1` [(S)-5-Oxo-1-(4-trifluoromethyl-phenyl)-pyrrolidine-2-carboxylic acid [5-(2-hydroxy-1,1-dimethyl-ethyl)-isoxazol-3-yl]-amide] it was 80.8 nM. The same measure, in the same setting: the result for `CC(C)(C)c1cc(NC(=O)[C@]2(C)CCCN2c2ccc(C(F)(F)F)cc2)no1` [(S)-2-Methyl-1-(4-trifluoromethyl-phenyl)-pyrrolidine-2-carboxylic acid (5-tert-butyl-isoxazol-3-yl)-amide] reads 0.199 nM; that for `CC(C)(C)c1cc(NC(=O)[C@@H]2CCCN2c2ncc(Cl)cc2F)on1` [(S)-1-(5-Chloro-3-fluoro-pyridin-2-yl)-pyrrolidine-2-carboxylic acid (3-tert-butyl-isoxazol-5-yl)-amide], 0.02 nM. For the compound `CC(C)(C)c1cc(NC(=O)[C@@H]2CCC(=O)N2c2ccc(Cl)cc2F)on1` [(S)-1-(4-Chloro-2-fluoro-phenyl)-5-oxo-pyrrolidine-2-carboxylic acid (3-tert-butyl-isoxazol-5-yl)-amide], the EC50 stood at 82 nM. The compound `O=C(NCC1CCOCC1)[C@@H]1CCCN1c1ccc(Cl)cc1` [(S)-1-(4-Chloro-phenyl)-pyrrolidine-2-carboxylic acid (tetrahydro-pyran-4-ylmethyl)-amide] had an EC50 of 415 nM. Compound `O=C(Nc1cc(C(F)(F)F)ccn1)[C@@H]1CCCN1c1ccc(Cl)cc1` [(S)-1-(4-Chloro-phenyl)-pyrrolidine-2-carboxylic acid (4-trifluoromethyl-pyridin-2-yl)-amide] displayed an EC50 of 23.4 nM. On the same count and under the same terms, in the case of `O=C(Nc1nc(C2CCCCC2)cs1)[C@@H]1C[C@@H](O)CN1CC1CCOCC1` [(2S,4R)-4-Hydroxy-1-(tetrahydro-pyran-4-ylmethyl)-pyrrolidine-2-carboxylic acid (4-cyclohexyl-thiazol-2-yl)-amide] it was 150 nM. In turn, `CC(C)(C)c1cc(NC(=O)[C@@H]2CCCN2S(=O)(=O)c2ccc(C(F)(F)F)cc2)no1` [(S)-1-(4-Trifluoromethyl-benzenesulfonyl)-pyrrolidine-2-carboxylic acid (5-tert-butyl-isoxazol-3-yl)-amide] showed an EC50 of 222 nM. As for `CC(C)(C)c1csc(NC(=O)[C@@H]2CCCN2c2ccc(Cl)cc2)n1` [(S)-1-(4-Chloro-phenyl)-pyrrolidine-2-carboxylic acid (4-tert-butyl-thiazol-2-yl)-amide], the midpoint of the response, the EC50, lay at 30.1 nM.

`CC(C)(C)c1cc(NC(=O)[C@@H]2CCC(=O)N2c2ccc(C(F)(F)F)cc2)no1` [(S)-5-Oxo-1-(4-trifluoromethyl-phenyl)-pyrrolidine-2-carboxylic acid (5-tert-butyl-isoxazol-3-yl)-amide]: the EC50 worked out at 5.76 nM. The compound `CC(C)(C)c1cc(NC(=O)[C@@H]2C[C@@H](O)CN2Cc2ccc(F)c(F)c2)on1` [(2S,4R)-1-(3,4-Difluoro-benzyl)-4-hydroxy-pyrrolidine-2-carboxylic acid (3-tert-butyl-isoxazol-5-yl)-amide] showed an EC50 of 6.88 nM. For the compound `CC(C)(C)c1cc(NC(=O)[C@@H]2C[C@H](O)CN2C2CCOCC2)on1` [(2S,4S)-4-Hydroxy-1-(tetrahydro-pyran-4-yl)-pyrrolidine-2-carboxylic acid (3-tert-butyl-isoxazol-5-yl)-amide], the midpoint of the response, the EC50, lay at 59 nM. As to `CC(C)(C)c1cc(NC(=O)[C@@H]2CCCN2CC2CCOCC2)on1` [(S)-1-(Tetrahydro-pyran-4-ylmethyl)-pyrrolidine-2-carboxylic acid (3-tert-butyl-isoxazol-5-yl)-amide], the EC50 came to 0.438 nM. Still for that read-out and setting: the result for `CC(C)(CO)c1cc(NC(=O)[C@@H]2CCCN2c2ccc(Cl)cc2)on1` [(S)-1-(4-Chloro-phenyl)-pyrrolidine-2-carboxylic acid [3-(2-hydroxy-1,1-dimethyl-ethyl)-isoxazol-5-yl]-amide] reads 0.378 nM; that for `CC1CC(NC(=O)[C@@H]2CCC(=O)N2c2ccc(Cl)cc2)CC(C)(C)C1` (stereo partly drawn) [(S)-1-(4-Chloro-phenyl)-5-oxo-pyrrolidine-2-carboxylic acid (3,3,5-trimethyl-cyclohexyl)-amide], 212 nM; that for `O=C(Nc1nc(-c2ccc(Cl)cc2)cs1)[C@@H]1CCCN1c1ccc(Cl)cc1` [(S)-1-(4-Chloro-phenyl)-pyrrolidine-2-carboxylic acid [4-(4-chloro-phenyl)-thiazol-2-yl]-amide], 84.9 nM. Turning to `O=C(Nc1nc(-c2ccc(Cl)cc2)cs1)[C@@H]1C[C@@H](O)CN1CC1CCOCC1` [(2S,4R)-4-Hydroxy-1-(tetrahydro-pyran-4-ylmethyl)-pyrrolidine-2-carboxylic acid [4-(4-chloro-phenyl)-thiazol-2-yl]-amide], the EC50 worked out at 71.2 nM.

`CC(C)(C)c1cc(NC(=O)[C@@H]2C[C@@H](O)CN2c2ccc(C(F)(F)F)cn2)no1` [(2S,4R)-4-Hydroxy-1-(5-trifluoromethyl-pyridin-2-yl)-pyrrolidine-2-carboxylic acid (5-tert-butyl-isoxazol-3-yl)-amide] displayed an EC50 of 161 nM.

As to `CC(C)(C)c1cc(NC(=O)[C@@H]2CCCN2CC2CCCCO2)on1` (stereo partly shown) [1-(Tetrahydro-pyran-2-ylmethyl)-pyrrolidine-2-carboxylic acid (3-tert-butyl-isoxazol-5-yl)-amide], the EC50 is 0.172 nM. `Cc1ccc(N2C(=O)CC[C@H]2C(=O)Nc2cc(C(C)(C)C)no2)cc1` [(S)-5-Oxo-1-p-tolyl-pyrrolidine-2-carboxylic acid (3-tert-butyl-isoxazol-5-yl)-amide] came in with an EC50 of 163 nM.

`CC(C)(C)c1cc(NC(=O)C2CCCN2c2ncc(C(F)(F)F)cc2Cl)no1` (stereo not shown) [1-(3-Chloro-5-trifluoromethyl-pyridin-2-yl)-pyrrolidine-2-carboxylic acid (5-tert-butyl-isoxazol-3-yl)-amide] showed an EC50 of 0.0402 nM.

Take `CC(C)(C)c1nnc(NC(=O)[C@@H]2CCCN2c2ccc(Cl)cc2)s1` [(S)-1-(4-Chloro-phenyl)-pyrrolidine-2-carboxylic acid (5-tert-butyl-1,3,4-thiadiazol-2-yl)-amide]: a half-maximal effect (EC50) was put at 0.098 nM. Compound `CC(C)(C)c1cc(NC(=O)[C@]2(C)CCCN2c2ccc(Cl)cc2)no1` [(S)-1-(4-Chloro-phenyl)-2-methyl-pyrrolidine-2-carboxylic acid (5-tert-butyl-isoxazol-3-yl)-amide] displayed an EC50 of 0.21 nM. Still for that read-out and setting: the result for `COc1ccc(N2C(=O)CC[C@H]2C(=O)Nc2cc(C(C)(C)C)no2)nc1` [(S)-1-(5-Methoxy-pyridin-2-yl)-5-oxo-pyrrolidine-2-carboxylic acid (3-tert-butyl-isoxazol-5-yl)-amide] reads 22.1 nM.

Turning to `CCCS(=O)(=O)N1CCC[C@H]1C(=O)Nc1cc(C(C)(C)C)on1` [(S)-1-(Propane-1-sulfonyl)-pyrrolidine-2-carboxylic acid (5-tert-butyl-isoxazol-3-yl)-amide], the EC50 was 120 nM. Still for that read-out and setting: in the case of `Cc1ccc(N2C(=O)CC[C@H]2C(=O)Nc2cc(C(C)(C)C)no2)cc1Cl` [(S)-l-(3-Chloro-4-methyl-phenyl)-5-oxo-pyrrolidine-2-carboxylic acid (3-tert-butyl-isoxazol-5-yl)-amide] it was 77.4 nM; in that of `CC(C)N1CCCC1C(=O)Nc1cc(C(C)(C)C)on1` (stereo not shown) [1-isopropyl-pyrrolidine-2-carboxylic acid (5-tert-butyl-isoxazol-3-yl)-amide], 30.3 nM.

For the compound `CC(Cc1ccc(Cl)cc1)NC(=O)[C@@H]1CCCN1c1ccc(Cl)cc1` (stereo partly drawn) [(S)-1-(4-Chloro-phenyl)-pyrrolidine-2-carboxylic acid [2-(4-chloro-phenyl)-1-methyl-ethyl]-amide], the EC50 came to 270 nM. As for `CC(C)(C)c1cc(NC(=O)[C@@H]2CCCN2c2ncc(C(F)(F)F)cc2Cl)no1` [(S)-1-(3-Chloro-5-trifluoromethyl-pyridin-2-yl)-pyrrolidine-2-carboxylic acid (5-tert-butyl-isoxazol-3-yl)-amide], it took 0.08 nM to reach a half-maximal effect (EC50). `COc1ccc(N2C(=O)CC[C@H]2C(=O)Nc2cc(C(C)(C)C)no2)cc1F` [(S)-1-(3-Fluoro-4-methoxy-phenyl)-5-oxo-pyrrolidine-2-carboxylic acid (3-tert-butyl-isoxazol-5-yl)-amide]: the EC50 is 314 nM.

`CC1(C)CC(=O)C=C(NC(=O)[C@@H]2CCCN2c2ccc(Cl)cc2)C1` [(S)-1-(4-Chloro-phenyl)-pyrrolidine-2-carboxylic acid (5,5-dimethyl-3-oxo-cyclohex-1-enyl)-amide] gave an EC50 of 17.9 nM.

Staying with this assay, now noted: CHO cells expressing human CB2R; inhibition of forskolin-stimulated cAMP synthesis; mean; read-out: CB2 CAMP @ EC50 nM (mean).
Regarding `O=C(Nc1nc(-c2ccccc2)ns1)[C@@H]1CCC(=O)N1c1ncc(C(F)(F)F)cc1Cl` [(S)-1-(3-chloro-5-trifluoromethyl-pyridin-2-yl)-5-oxo-pyrrolidine-2-carboxylic acid (3-phenyl-1,2,4-thiadiazol-5-yl)-amide], the EC50 is 0.549 nM. For the compound `O=C(NCC1CCCCC1)[C@@H]1C[C@@H](O)CN1C(=O)C1CCC(F)(F)CC1` [(2S,4R)-1-(4,4-Difluoro-cyclohexanecarbonyl)-4-hydroxy-pyrrolidine-2-carboxylic acid cyclohexylmethyl-amide], the EC50 amounted to 432 nM. The same measure, in the same setting: the result for `CCCc1cc(NC(=O)[C@@H]2C[C@@H](O)CN2CC2CCOCC2)on1` [(2S,4R)-4-Hydroxy-1-(tetrahydro-pyran-4-ylmethyl)-pyrrolidine-2-carboxylic acid (3-propyl-isoxazol-5-yl)-amide] reads 248 nM.
